# Values quoted from earlier work in patent US5283250A, “Quinolinyl/quinolinylalkyl-N-terminal amino hydroxy” (G. D. Searle & Co., priority 1991, dated 1994).
# Square brackets hold non-standard residues; d marks the D form. Peptide text beside a SMILES is read from it. * marks the point of attachment. Sta = CC(C)C[C@H](N)[C@@H](O)CC(=O)O; Isovaleryl = CC(C)CC(=O)*
# What was measured:
# cathepsin D = conditions: Umezawa et al 1970
# hog renin = conditions: after injection of hog renin into nephrectomized rats; Gross et al 1971
# renin = conditions: Umezawa et al 1970
# pepsin = conditions: Umezawa et al 1970
smiles,measurement,setting,value
CC(C)CC(=O)N[C@H](C(=O)N[C@H](C(=O)N[C@@H](CC(C)C)[C@@H](O)CC(=O)N[C@@H](C)C(=O)N[C@@H](CC(C)C)[C@@H](O)CC(=O)O)C(C)C)C(C)C [pepstatin] (Isovaleryl-VV[Sta]A[Sta]-OH),inhibition of cathepsin D (in words),cathepsin D,inhibitor
same,blood pressure in vivo (in words),hog renin,reduce blood pressure in vivo
same,inhibition of renin (in words),renin,inhibitor
same,inhibition of pepsin (in words),pepsin,inhibitor
same,inhibition of acid proteases in addition to renin (in words),acid proteases,inhibiting acid proteases in addition to renin
